Test results published in the NIST ThermoML archive (doi:10.1016/j.jct.2012.03.029).

Test: mn = molality of the nth substance listed, in mol/kg
Conditions: 101 kPa, Liquid, m1 = 0.01; for speed of sound: Sing-around technique in a fixed-path interferometer; for mass density: Vibrating tube method

OC[C@H]1O[C@@H]2O[C@H]3[C@H](O)[C@@H](O)[C@@H](O[C@H]4[C@H](O)[C@@H](O)[C@@H](O[C@H]5[C@H](O)[C@@H](O)[C@@H](O[C@H]6[C@H](O)[C@@H](O)[C@@H](O[C@H]7[C@H](O)[C@@H](O)[C@@H](O[C@H]8[C@H](O)[C@@H](O)[C@@H](O[C@H]1[C@H](O)[C@H]2O)O[C@@H]8CO)O[C@@H]7CO)O[C@@H]6CO)O[C@@H]5CO)O[C@@H]4CO)O[C@@H]3CO [β-cyclodextrin] + O
Conditions | mass density [kg/m3] | speed of sound [m/s]
293.15 K | 1001.93 | 1484.4
298.15 K | 1000.75 | 1498.5
303.15 K | 999.217 | 1510.9
308.15 K | 997.709 | 1521.5
